US9113629B2, “4-amino-6-(4-substituted-phenyl)-picolinates and 6-amino-2-(4-substituted-phenyl)-pyrimidine-4-carboxylates and their use as herbicides” (DOW AGROSCIENCES LLC, priority 2013, dated 2015)

Key:
[1] = Post-emergent Test III, herbicidal activity in wheat and barley; format: in vivo, Lolium multiflorum, Lolium rigidum; settings: Lolium multiflorum, post-emergence, 504 h, read-out: Visual Growth Reduction (%) 21 Days After Application LOLSS; for pest or weed control at 35 g/ha: 35 g ai/ha; for pest or weed control at 70 g/ha: 70 g ai/ha; for pest or weed control at 140 g/ha: 140 g ai/ha
Summary of the method: (§1)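 Plants at the second to third true-leaf stage, grown in a greenhouse at about 18/17 °C with a 14 h photoperiod, were sprayed post-emergence at 187 L/ha with the high rate and ½× to 1/16× serial dilutions in an acetone/DMSO/crop-oil/surfactant carrier. Injury was rated visually at 21 d on a 0–100% scale, and GR20–GR90 were derived by probit analysis.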

[2] = system: APESV: bentgrass (Apera spica-venti); test: as above; format: in vivo; settings: for pest or weed control at 35 g/ha / pest or weed control at 70 g/ha / pest or weed control at 140 g/ha: Apera spica-venti, post-emergence, 504 h, read-out: Visual Growth Reduction (%) 21 Days After Application APESV; for pest or weed control at 35 g/ha: 35 g ai/ha; for pest or weed control at 70 g/ha: 70 g ai/ha; for pest or weed control at 140 g/ha: 140 g ai/ha; for GR50 APESV / GR80 APESV: probit analysis, 21 days after application; for GR50 APESV: dose for growth reduction of 50 percent; for GR80 APESV: dose for growth reduction of 80 percent
Summary of the method: as §1

[3] = system: HORSS: barley, including spring and winter (Hordeum vulgare); test: as above; format: in vivo; settings: for pest or weed control at 35 g/ha / pest or weed control at 70 g/ha / pest or weed control at 140 g/ha: Hordeum vulgare, post-emergence, 504 h, read-out: Visual Growth Reduction (%) 21 Days After Application HORSS; for pest or weed control at 35 g/ha: 35 g ai/ha; for pest or weed control at 70 g/ha: 70 g ai/ha; for pest or weed control at 140 g/ha: 140 g ai/ha; for GR20 HORSS: probit analysis, dose for growth reduction of 20 percent, 21 days after application, crop
Summary of the method: as §1

[4] = system: KCHSC: kochia (Kochia scoparia); test: as above; format: in vivo; settings: for pest or weed control at 35 g/ha / pest or weed control at 70 g/ha / pest or weed control at 140 g/ha: Bassia scoparia, post-emergence, 504 h, read-out: Visual Growth Reduction (%) 21 Days After Application KCHSC; for pest or weed control at 35 g/ha: 35 g ai/ha; for pest or weed control at 70 g/ha: 70 g ai/ha; for pest or weed control at 140 g/ha: 140 g ai/ha; for GR50 KCHSC / GR80 KCHSC: probit analysis, 21 days after application; for GR50 KCHSC: dose for growth reduction of 50 percent; for GR80 KCHSC: dose for growth reduction of 80 percent
Summary of the method: as §1

[5] = system: LOLSS: ryegrass including, Italian ryegrass (Lolium multiflorum), rigid ryegrass (Lolium rigidum), annual ryegrass (Lolium multiflorum subsp. Gaudini); test: as above; format: in vivo; settings: probit analysis, 21 days after application; for GR50 LOLSS: dose for growth reduction of 50 percent; for GR80 LOLSS: dose for growth reduction of 80 percent
Summary of the method: as §1

[6] = system: MATSS: scented mayweed (Matricaria chamomilla), pineappleweed (Matricaria matricarioides); test: as above; format: in vivo; settings: for pest or weed control at 35 g/ha / pest or weed control at 70 g/ha / pest or weed control at 140 g/ha: Matricaria chamomilla, post-emergence, 504 h, read-out: Visual Growth Reduction (%) 21 Days After Application MATSS; for pest or weed control at 35 g/ha: 35 g ai/ha; for pest or weed control at 70 g/ha: 70 g ai/ha; for pest or weed control at 140 g/ha: 140 g ai/ha; for GR50 MATSS / GR80 MATSS: probit analysis, 21 days after application; for GR50 MATSS: dose for growth reduction of 50 percent; for GR80 MATSS: dose for growth reduction of 80 percent
Summary of the method: as §1

[7] = system: SETVI: green foxtail (Setaria viridis); test: as above; format: in vivo; settings: for pest or weed control at 35 g/ha / pest or weed control at 70 g/ha / pest or weed control at 140 g/ha: Setaria viridis, post-emergence, 504 h, read-out: Visual Growth Reduction (%) 21 Days After Application SETVI; for pest or weed control at 35 g/ha: 35 g ai/ha; for pest or weed control at 70 g/ha: 70 g ai/ha; for pest or weed control at 140 g/ha: 140 g ai/ha; for GR50 SETVI / GR80 SETVI: probit analysis, 21 days after application; for GR50 SETVI: dose for growth reduction of 50 percent; for GR80 SETVI: dose for growth reduction of 80 percent
Summary of the method: as §1

[8] = system: TRZSS: wheat, including spring and winter (Triticum aestivum); test: as above; format: in vivo; settings: for pest or weed control at 35 g/ha / pest or weed control at 70 g/ha / pest or weed control at 140 g/ha: Triticum aestivum, post-emergence, 504 h, read-out: Visual Growth Reduction (%) 21 Days After Application TRZSS; for pest or weed control at 35 g/ha: 35 g ai/ha; for pest or weed control at 70 g/ha: 70 g ai/ha; for pest or weed control at 140 g/ha: 140 g ai/ha; for GR20 TRZSS: probit analysis, dose for growth reduction of 20 percent, 21 days after application, crop
Summary of the method: as §1

Row | Compound | pest or weed control at 35 g/ha [1] | pest or weed control at 70 g/ha [1] | pest or weed control at 140 g/ha [1] | pest or weed control at 35 g/ha [2] | pest or weed control at 70 g/ha [2] | pest or weed control at 140 g/ha [2] | GR50 APESV [2] | GR80 APESV [2] | pest or weed control at 35 g/ha [3] | pest or weed control at 70 g/ha [3] | pest or weed control at 140 g/ha [3] | GR20 HORSS [3] | pest or weed control at 35 g/ha [4] | pest or weed control at 70 g/ha [4] | pest or weed control at 140 g/ha [4] | GR50 KCHSC [4] | GR80 KCHSC [4] | GR50 LOLSS [5] | GR80 LOLSS [5] | pest or weed control at 35 g/ha [6] | also measured
1 | COC(=O)c1nc(-c2ccc(C#N)cc2)c(F)c(N)c1Cl [Compound 142] | 0 to 29% | 0 to 29% | 0 to 29% | 0 to 29% | 0 to 29% | 0 to 29% | >140 g ai/ha | >140 g ai/ha | 0 to 29% | 0 to 29% | 0 to 29% | 57 g ai/ha | 45 to 59% | 60 to 74% | 60 to 74% | 17 g ai/ha | >140 g ai/ha | >140 g ai/ha | >140 g ai/ha | 0 to 29% | pest or weed control at 70 g/ha [6]: 0 to 29%; pest or weed control at 140 g/ha [6]: 30 to 44%; GR50 MATSS [6]: >140 g ai/ha; GR80 MATSS [6]: >140 g ai/ha; pest or weed control at 35 g/ha [7]: 0 to 29%; pest or weed control at 70 g/ha [7]: 0 to 29%; pest or weed control at 140 g/ha [7]: 0 to 29%; GR50 SETVI [7]: >140 g ai/ha; GR80 SETVI [7]: >140 g ai/ha; pest or weed control at 35 g/ha [8]: 0 to 29%; pest or weed control at 70 g/ha [8]: 0 to 29%; pest or weed control at 140 g/ha [8]: 45 to 59%; GR20 TRZSS [8]: >140 g ai/ha
2 | COC(=O)c1nc(-c2ccc(Br)c(F)c2F)cc(N)c1Cl [Compound 114, methyl 4-amino-6-(4-bromo-2,3-difluorophenyl)-3-chloropicolinate] | 0 to 29% | 0 to 29% | 0 to 29% | 0 to 29% | 0 to 29% | 0 to 29% | >140 g ai/ha | >140 g ai/ha | 0 to 29% | 30 to 44% | 30 to 44% | 42 g ai/ha | 60 to 74% | 60 to 74% | 75 to 84% | 3 g ai/ha | >140 g ai/ha | >140 g ai/ha | >140 g ai/ha | 0 to 29% | pest or weed control at 70 g/ha [6]: 0 to 29%; pest or weed control at 140 g/ha [6]: 0 to 29%; GR50 MATSS [6]: >140 g ai/ha; GR80 MATSS [6]: >140 g ai/ha; pest or weed control at 35 g/ha [7]: 0 to 29%; pest or weed control at 70 g/ha [7]: 0 to 29%; pest or weed control at 140 g/ha [7]: 0 to 29%; GR50 SETVI [7]: >140 g ai/ha; GR80 SETVI [7]: >140 g ai/ha; pest or weed control at 35 g/ha [8]: 30 to 44%; pest or weed control at 70 g/ha [8]: 45 to 59%; pest or weed control at 140 g/ha [8]: 45 to 59%; GR20 TRZSS [8]: 16 g ai/ha
3 | N#Cc1ccc(-c2nc(C(=O)O)c(Cl)c(N)c2F)cc1 [Compound 39] | 30 to 44% | 45 to 59% | 60 to 74% | 30 to 44% | 45 to 59% | 60 to 74% | 70 g ai/ha | >140 g ai/ha | 30 to 44% | 45 to 59% | 60 to 74% | 18 g ai/ha | 75 to 84% | 85 to 94% | 85 to 94% | 3 g ai/ha | 40 g ai/ha | 82 g ai/ha | >140 g ai/ha | 95 to 100% | pest or weed control at 70 g/ha [6]: 95 to 100%; pest or weed control at 140 g/ha [6]: 95 to 100%; GR50 MATSS [6]: 1 g ai/ha; GR80 MATSS [6]: 1 g ai/ha; pest or weed control at 35 g/ha [7]: 30 to 44%; pest or weed control at 70 g/ha [7]: 45 to 59%; pest or weed control at 140 g/ha [7]: 60 to 74%; GR50 SETVI [7]: 68 g ai/ha; GR80 SETVI [7]: >140 g ai/ha; pest or weed control at 35 g/ha [8]: 75 to 84%; pest or weed control at 70 g/ha [8]: 75 to 84%; pest or weed control at 140 g/ha [8]: 85 to 94%; GR20 TRZSS [8]: 1 g ai/ha
4 | Nc1c(F)c(-c2ccc(I)cc2)nc(C(=O)O)c1Cl [Compound 45, 4-amino-3-chloro-5-fluoro-6-(4-iodophenyl)picolinic acid] | 60 to 74% | 75 to 84% | 85 to 94% | 85 to 94% | 85 to 94% | 95 to 100% | 8 g ai/ha | 25 g ai/ha | 85 to 94% | 85 to 94% | 95 to 100% | 1 g ai/ha | 85 to 94% | 95 to 100% | 95 to 100% | 2 g ai/ha | 9 g ai/ha | 20 g ai/ha | 69 g ai/ha | 85 to 94% | pest or weed control at 70 g/ha [6]: 95 to 100%; pest or weed control at 140 g/ha [6]: 95 to 100%; GR50 MATSS [6]: 2 g ai/ha; GR80 MATSS [6]: 29 g ai/ha; pest or weed control at 35 g/ha [7]: 60 to 74%; pest or weed control at 70 g/ha [7]: 85 to 94%; pest or weed control at 140 g/ha [7]: 95 to 100%; GR50 SETVI [7]: 18 g ai/ha; GR80 SETVI [7]: 52 g ai/ha; pest or weed control at 35 g/ha [8]: 85 to 94%; pest or weed control at 70 g/ha [8]: 85 to 94%; pest or weed control at 140 g/ha [8]: 85 to 94%; GR20 TRZSS [8]: 1 g ai/ha
